Assay results: ChEMBL document CHEMBL2407033, “Pin1 inhibitors: Pitfalls, progress and cellular pharmacology” (Bioorg Med Chem Lett, 2013)
Where a SMILES comes first, the peptide text is derived from it. Bridges are numbered along the chain shown (N, C = ends).

Experiments:
[1] = biological target: T1, Peptidyl-prolyl cis-trans isomerase NIMA-interacting 1 (Homo sapiens, UniProt Q13526); test: Inhibition of Pin1 in human MCF7 cells assessed as inhibition of etoposide-induced p53 transcription at 30 uM by luciferase reporter gene assay relative to control; type: cell-based
[2] = biological target: T1, Peptidyl-prolyl cis-trans isomerase NIMA-interacting 1; test: Inhibition of human Pin1
[3] = biological target: T1, Peptidyl-prolyl cis-trans isomerase NIMA-interacting 1; test: Inhibition of Pin1 (unknown origin)
[4] = biological target: T1, Peptidyl-prolyl cis-trans isomerase NIMA-interacting 1; test: Reversible inhibition of human Pin1
[5] = biological target: T1, Peptidyl-prolyl cis-trans isomerase NIMA-interacting 1; test: Inhibition of Pin1 (unknown origin) using Suc-Ala-Glu-Pro-Phe-MCA as substrate after 120 secs by fluorescence microtiter plate reader analysis
[6] = biological target: Peptidyl-prolyl cis-trans isomerase NIMA-interacting 4 (Homo sapiens, UniProt Q9Y237); test: Inhibition of Par14 (unknown origin)
[7] = biological target: T1, Peptidyl-prolyl cis-trans isomerase NIMA-interacting 1; test: Inhibition of full length Pin1 (unknown origin) using WFY(pS)PR-pNA as substrate by spectrophotometric analysis
[8] = Growth inhibition of Pin1-deficient MEF; type: cell-based; details: mouse, Pin1-deficient MEF cells
MEF = test: Growth inhibition of MEF expressing Pin1; type: functional; details: Mus musculus
[9] = Growth inhibition of human […] cells; type: functional
[10] = biological target: T1, Peptidyl-prolyl cis-trans isomerase NIMA-interacting 1; test: Inhibition of Pin1 (unknown origin) using Suc-Ala-Glu-cis-Pro-Phe-pNA as substrate
[11] = biological target: T1, Peptidyl-prolyl cis-trans isomerase NIMA-interacting 1; test: Competitive inhibition of Pin1 (unknown origin) by Lineweaver-Burk plot analysis
[12] = biological target: T1, Peptidyl-prolyl cis-trans isomerase NIMA-interacting 1; test: Binding affinity to GST-tagged Pin1 (unknown origin) by SPR spectroscopic analysis
[13] = biological target: T1, Peptidyl-prolyl cis-trans isomerase NIMA-interacting 1; test: Inhibition of Pin1 in human MCF7 cells assessed as inhibition of etoposide-induced p53 transcription at 10 uM by luciferase reporter gene assay relative to control; type: cell-based
[14] = biological target: T1, Peptidyl-prolyl cis-trans isomerase NIMA-interacting 1; test: Inhibition of GST-tagged Pin1 (unknown origin) using Suc-AEPF-pNA and WFYpSPR-pNA as substrate after 5 mins

T1 sequence (Q13526 whole entry): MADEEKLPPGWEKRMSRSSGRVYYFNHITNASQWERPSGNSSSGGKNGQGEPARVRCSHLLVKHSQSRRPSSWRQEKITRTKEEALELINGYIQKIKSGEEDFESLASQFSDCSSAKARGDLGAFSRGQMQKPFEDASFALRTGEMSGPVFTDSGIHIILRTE
Peptidyl-prolyl cis-trans isomerase NIMA-interacting 4, sequence (Q9Y237 whole entry): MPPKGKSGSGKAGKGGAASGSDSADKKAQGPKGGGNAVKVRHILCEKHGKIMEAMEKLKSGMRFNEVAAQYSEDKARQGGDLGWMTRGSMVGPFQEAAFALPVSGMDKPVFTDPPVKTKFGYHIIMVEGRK

## COc1ccc(F)cc1C(=O)[C@@]1(C)CCc2ccccc21
[1]
  inhibition: 25%

## O=C(O)C[C@@H](C/C=C/c1cccc(F)c1)NC(=O)c1ccc2ccccc2c1
[2]
  IC50: 0.89 µM

## O=C(N[C@@H](COP(=O)(O)O)CN1CCC[C@H]1C(=O)NCCc1c[nH]c2ccccc12)OCC1c2ccccc2-c2ccccc21
[3]
  IC50: 6 µM

## O=C(N[C@H](Cc1cccc(F)c1)c1nn[nH]n1)c1ccc2ccccc2c1
[2]
  IC50: 4 µM

## O=C(c1cc(-c2c(O)c([N+](=O)[O-])cc(F)c2[N+](=O)[O-])cc([N+](=O)[O-])c1O)C1CCc2ccccc21 (racemic)
[4]
  IC50: 0.2 µM

## Cc1oc(-c2ccc(CN)cc2)cc1C(=O)N[C@H](Cc1nc2ccccc2[nH]1)C(=O)O
[3]
  IC50: 0.025 µM

## CCOC(=O)CN1C(=O)c2ccc3c4c(ccc(c24)C1=O)C(=O)N(CC(=O)OCC)C3=O
[5]
  IC50: 1.5 µM
[6]
  IC50: 1.5 µM

## CCCCCc1ccc(CCC(=O)N[C@H](Cc2ccc(O)cc2)C(=O)N[C@@H](Cc2ccc(O)cc2)C(=O)N[C@@H](Cc2ccc3ccccc3c2)C(=O)O)cc1
[2]
  IC50: 0.6 µM

## O=C(O[C@@H]1Cc2c(O)cc(O)cc2O[C@@H]1c1cc(O)c(O)c(O)c1)c1cc(O)c(O)c(O)c1 [EPIGALOCATECHIN GALLATE]
[7]
  IC50: 20 µM
[8]
  GI50: 14 µM
MEF
  GI50: 7 µM

## CC(=O)N[C@@H](Cc1ccccc1)C(=O)N[C@@H](Cc1ccccc1)C(=O)N[C@H](/C=C1/CCC[C@H]1C(=O)N[C@@H](CCCNC(=N)N)C(N)=O)COP(=O)(O)O
[9]
  GI50: 8 µM
[10]
  IC50: 1.5 µM

## S=C(SC(=S)N1CCCCC1)N1CCCCC1
[11]
  Ki: 0.05 µM
[3]
  IC50: 4 µM

## O=c1ccsn1-c1ccc(F)c(Cl)c1
[12]
  IC50: 6.1 µM

## COc1ccc(F)cc1C(=O)[C@]1(C)CCc2ccccc21
[3]
  IC50: 5.6 µM
[13]
  inhibition: > 75%

## CC[C@H](C)[C@@H]1NC(=O)[C@H](CCC(=O)O)NC(=O)[C@H](C(C)C)NC(=O)[C@H](CCC(=O)O)NC(=O)[C@@H]2CCCN2C(=O)[C@H](Cc2ccc(O)cc2)NC(=O)[C@H](CCCN=C(N)N)NC(=O)[C@@H](N)CSSC[C@@H](C(=O)O)NC1=O [CYCLIC CRYPEVEIC] (H-CRYPEVEIC-OH; disulfide 1-9)
[14]
  IC50: 0.5 µM

## CC(=O)N[C@@H](C)C(=O)N[C@@H](C)C(=O)N[C@H](COP(=O)(O)O)C(=O)N1CCC[C@H]1C(=O)N[C@@H](CCCNC(=N)N)C(=O)Nc1ccc([N+](=O)[O-])cc1
[4]
  IC50: 1 µM
